Measured values published in patent US10174070B2, “6-substituted estradiol derivatives and methods of use” (Endece LLC, priority 2005, dated 2019).

Columns and labels:
Assay type in all cases: cell-based
Pancreas (Capan-1) = test: Cell viability (ATP luminescence) IC50 determination, Capan-1; settings: Homo sapiens, Capan-1 cells, 72 hours incubation, vs DMSO vehicle control
Procedure: (§1) In yet another aspect of the instant invention, the IC50 or the half maximal inhibitory concentration of the candidate compounds were determined to assess drug potency and potential dosing regimens for in vivo use. One of ordinary skill in the art is readily able to ascertain such information using commonly known methodologies. As it has been well described in the art, IC50 represents and measures how much of a particular substance/molecule is needed to inhibit some biological process by 50%. In the instant case, the IC50 of the candidate compounds were determined as the concentration that led to a response of 50% compared to the vehicle control cells.
(§2) The cell lines listed are maintained at approximately 5% CO2, 37° C., 95% relative humidity in the media appropriate for that cell line. The cells are sub-cultured every two to three days and plated in clear bottom 96-well plates at a density of 1×10^4 cells/well and incubated at ca. 5% CO2, 37° C. overnight prior to initiation of the assay. To begin cell viability assays, the media in the cell plate (100 μL) is replaced with fresh media (100 μL). The test articles are serially diluted […] in fresh media in duplicate and added to the cells (100 μL) at final sample concentrations of 0.46, 1.37, 4.12, 12.35, 37.04, 111.1, 333.3 and 1000 μM (≤1% DMSO) in a total volume of 200 μL. Wells containing no cells and wells containing cells lysed with 0.1% Triton-X are used for baseline controls. Tamoxifen is used as a known control for each assay and DMSO only will be run as vehicle control. The samples are incubated at ca. 37° C. in humidified 5% CO2 atmosphere for 72 hours. The plate is monitored once a day during the incubation period, paying special attention to the level of confluence. If the cells approach confluence prior to the end of the 72 hour incubation period, the experiment is terminated and cell viability measured as described below.
(§3) Cell viability is determined using a commercially available kit to determine ATP levels by luminescence. Briefly, the cell plate has the media removed and replaced with 100 μL of fresh media, and the buffer and lyophilized substrate are equilibrated to room temperature. The buffer is used to reconstitute the substrate just prior to addition to the wells of the cell plate (100 μL per well). The plate is placed into the Infinite M200 plate reader, allowed to shake for 10 minutes followed by a 10 minute wait period. The plate is then read using an integration time of 0.5 sec with no attenuation.
(§4) The mean baseline controls (wells with Triton X-100 or no cells) are subtracted from the total luminescence to give the net luminescence for that well. This total is compared to the control of DMSO only. An IC50 is calculated as the concentration that led to a response of 50% compared to the vehicle control cells.

ovary (Ovcar-3) = test: Cell viability (ATP luminescence) IC50 determination, Ovcar-3; settings: Homo sapiens, Ovcar-3 cells, 72 hours incubation, vs DMSO vehicle control
Procedure: as §1, §2, §3, §4

lung (A549) = test: Cell viability (ATP luminescence) IC50 determination, A549; settings: Homo sapiens, A549 cells, 72 hours incubation, vs DMSO vehicle control
Procedure: as §1, §2, §3, §4

[1] = test system: cells lines derived from breast, lung, colon, prostate, endometrial and ovarian cancers; test: In vitro studies of tumor cell growth inhibition in cancer cell lines; settings: CYP19 positive (MDA-MB-213 and SK-OV-3) vs CYP19 negative (MCF-7 and NIH:OVCAR-3), where it is reduced

## COC[C@H]1C[C@@H]2[C@H](CC[C@]3(C)C(O)CC[C@@H]23)c2ccc(O)cc21 (stereo partly drawn) [Compound 3, (6S,8R,9S,13S,14S)-6-(methoxymethyl)-13-methyl-7,8,9,11,12,13,14,15,16,17-decahydro-6H-cyclopenta[a]phenanthrene-3,17-diol]
Pancreas (Capan-1)
  IC50: 168 µM
Ovary (Ovcar-3)
  IC50: 94 µM
Lung (A549)
  IC50: 84 µM

## COC[C@@H]1C[C@@H]2[C@H](CC[C@]3(C)C(O)CC[C@@H]23)c2ccc(O)cc21 (stereo partly drawn) [Compound 4, (6R,8R,9S,13S,14S)-6-(methoxymethyl)-13-methyl-7,8,9,11,12,13,14,15,16,17-decahydro-6H-cyclopenta[a]phenanthrene-3,17-diol]
Pancreas (Capan-1)
  IC50: 32 µM
Ovary (Ovcar-3)
  IC50: 100 µM
Lung (A549)
  IC50: 70 µM

## C[C@]12CC[C@@H]3c4ccc(O)cc4[C@H](CO)C[C@H]3[C@@H]1CCC2O (stereo partly drawn) [Compound 8, (6R,8R,9S,13S,14S)-6-(hydroxymethyl)-13-methyl-7,8,9,11,12,13,14,15,16,17-decahydro-6H-cyclopenta[a]phenanthrene-3,17-diol]
Pancreas (Capan-1)
  IC50: 212 µM
Ovary (Ovcar-3)
  IC50: 221 µM
Lung (A549)
  IC50: 184 µM

## COC[C@@H]1C[C@@H]2[C@H](CC[C@]3(C)C(O)CC[C@@H]23)[C@@]2(C)CCC(O)CC12 (stereo partly drawn) [Compound 9, (6R,8R,9S,10R,13S,14S)-6-(methoxymethyl)-10,13-dimethylhexadecahydro-1H-cyclopenta[a]phenanthrene-3,17-diol]
Pancreas (Capan-1)
  IC50: > 1000 µM
Ovary (Ovcar-3)
  IC50: > 1000 µM
Lung (A549)
  IC50: > 1000 µM

## C[C@]12CC[C@@H]3c4ccc(O)cc4[C@H](CON)C[C@H]3[C@@H]1CCC2O (stereo partly drawn) [Compound 10, (6R,8R,9S,13S,14S)-6-((aminooxy)methyl)-13-methyl-7,8,9,11,12,13,14,15,16,17-decahydro-6H-cyclopenta[a]phenanthrene-3,17-diol]
Pancreas (Capan-1)
  IC50: 277 µM
Ovary (Ovcar-3)
  IC50: 317 µM
Lung (A549)
  IC50: 170 µM

## CO[C@@H]1C[C@@H]2[C@H](CC[C@]3(C)C(O)CC[C@@H]23)c2ccc(O)cc21 (stereo partly drawn) [Compound 18, (6R,8R,9S,13S,14S)-6-methoxy-13-methyl-7,8,9,11,12,13,14,15,16,17-decahydro-6H-cyclopenta[a]phenanthrene-3,17-diol]
Pancreas (Capan-1)
  IC50: 192 µM
Ovary (Ovcar-3)
  IC50: 207 µM
Lung (A549)
  IC50: 139 µM

## COCC[C@@H]1C[C@@H]2[C@H](CC[C@]3(C)C(O)CC[C@@H]23)c2ccc(O)cc21 (stereo partly drawn) [Compound 19, (6S,8R,9S,13S,14S)-6-(2-methoxyethyl)-13-methyl-7,8,9,11,12,13,14,15,16,17-decahydro-6H-cyclopenta[a]phenanthrene-3,17-diol]
Pancreas (Capan-1)
  IC50: 32 µM
Ovary (Ovcar-3)
  IC50: 96 µM
Lung (A549)
  IC50: 80 µM

## COCCCC[C@@H]1C[C@@H]2[C@H](CC[C@]3(C)C(O)CC[C@@H]23)c2ccc(O)cc21 (stereo partly drawn) [Compound 20, (6R,8R,9S,13S,14S)-6-(4-methoxybutyl)-13-methyl-7,8,9,11,12,13,14,15,16,17-decahydro-6H-cyclopenta[a]phenanthrene-3,17-diol]
Pancreas (Capan-1)
  IC50: 16 µM
Ovary (Ovcar-3)
  IC50: 60 µM
Lung (A549)
  IC50: 34 µM

## COCCCCCC[C@@H]1C[C@@H]2[C@H](CC[C@]3(C)C(O)CC[C@@H]23)c2ccc(O)cc21 (stereo partly drawn) [Compound 21, (6R,8R,9S,13S,14S)-6-(6-methoxyhexyl)-13-methyl-7,8,9,11,12,13,14,15,16,17-decahydro-6H-cyclopenta[a]phenanthrene-3,17-diol]
Pancreas (Capan-1)
  IC50: 23 µM
Ovary (Ovcar-3)
  IC50: 24 µM
Lung (A549)
  IC50: 17 µM

## CCC(CCCCC[C@@H]1C[C@@H]2[C@H](CC[C@]3(C)C(O)CC[C@@H]23)c2ccc(O)cc21)OC (stereo partly drawn) [Compound 22, (6R,8R,9S,13S,14S)-6-(6-methoxyoctyl)-13-methyl-7,8,9,11,12,13,14,15,16,17-decahydro-6H-cyclopenta[a]phenanthrene-3,17-diol]
Pancreas (Capan-1)
  IC50: 22 µM
Ovary (Ovcar-3)
  IC50: 20 µM
Lung (A549)
  IC50: 13 µM

## CCCCCCCCCCCCCCCCCC(=O)OC1CC[C@H]2[C@@H]3C[C@@H](COC)c4cc(O)ccc4[C@H]3CC[C@]12C (stereo partly drawn) [Compound 23, (6R,8R,9S,13S,14S)-3-hydroxy-6-(methoxymethyl)-13-methyl-7,8,9,11,12,13,14,15,16,17-decahydro-6H-cyclopenta[a]phenanthren-17-yl stearate]
Pancreas (Capan-1)
  IC50: 775 µM
Ovary (Ovcar-3)
  IC50: > 1000 µM
Lung (A549)
  IC50: > 1000 µM

## COC[C@@H]1C[C@@H]2[C@H](CC[C@]3(C)C(=O)CC[C@@H]23)[C@@]2(C)C=CC(=O)C=C12 [Compound 24, (6R,8R,9S,10R,13S,14S)-6-(methoxymethyl)-10,13-dimethyl-7,8,9,10,11,12,13,14,15,16-decahydro-3H-cyclopenta[a]phenanthrene-3,17(6H)-dione]
[1]
  in vitro studies of tumor cell growth, by CYP19 status of the cell line: highest in cell lines that are CYP19 positive

## CCCOCCCC[C@@H]1C[C@@H]2[C@H](CC[C@]3(C)C(O)CC[C@@H]23)c2ccc(O)cc21 (stereo partly drawn) [Compound 30, (6R,8R,9S,13S,14S)-13-methyl-6-(4-propoxybutyl)-7,8,9,11,12,13,14,15,16,17-decahydro-6H-cyclopenta[a]phenanthrene-3,17-diol]
Pancreas (Capan-1)
  IC50: 10 µM
Ovary (Ovcar-3)
  IC50: 29 µM
Lung (A549)
  IC50: 5 µM

## CCOCCCCC[C@@H]1C[C@@H]2[C@H](CC[C@]3(C)C(O)CC[C@@H]23)c2ccc(O)cc21 (stereo partly drawn) [Compound 31, (6R,8R,9S,13S,14S)-13-methyl-6-(5-ethoxypentyl)-7,8,9,11,12,13,14,15,16,17-decahydro-6H-cyclopenta[a]phenanthrene-3,17-diol]
Pancreas (Capan-1)
  IC50: 15 µM
Ovary (Ovcar-3)
  IC50: 28 µM
Lung (A549)
  IC50: 7 µM
